Experimental data: patent US20060099161A1, “Skin preparations for external use” (priority 2002, published 2006)

Tests used:
[1] = Visual evaluation of discoloration of powder lotion-type antiperspirant lotions; format: physicochemical
Protocol: Recipes shown in Table 1-1 and Table 1-2 were used to prepare powder lotion-type antiperspirant lotions and the degree of discoloration was evaluated visually. For Comparative examples, a recipe containing no trisodium ethylenediaminehydroxyethyl triacetate and a recipe containing a chelating agent EDTA-3Na.2H2O instead of trisodium ethylenediaminehydroxyethyl triacetate were investigated. The degree of discoloration was evaluated by giving ◯ to those that are within the acceptable range for skin treatment composition, and × to those that are outside of this range.

[2] = Staining of clothing after application, sunlight exposure and washing (visual observation); format: physicochemical
Protocol: Recipes shown in Table 3-1 and Table 3-2 were used to prepare powder lotion-type antiperspirant lotions and a prescribed amount (4 micrograms/cm^2) is applied on clothing. The clothing was exposed to sunlight (10 minutes) and washed with common laundry detergent in a washing machine; the degree of staining was then evaluated by visual observation. For Comparative examples, recipes not containing polyoxyethylene polyoxypropylene 2-decyltetradecyl ether (20-28 E.O.) (10-16 P.O.) and recipes containing polyoxyethylene (E.O. 60) were investigated. The degree of staining was evaluated by giving ◯ to those that are within the acceptable range for skin treatment compositions, and × to those that are outside of this range.

Row | anti-staining effect of the ingredient in skin treatment compositions containing anti-bacterial zeolite [2] | Molecule | anti-discoloration effect of the ingredient in skin treatment compositions containing anti-bacterial zeolite [1]
1 |  | O=C([O-])CN(CCN(CC(=O)[O-])CC(=O)O)CC(=O)[O-].[Na+].[Na+].[Na+] [EDTA-3Na] | do not have the anti-discoloration effect
2 |  | O=C([O-])CN(CCO)CCN(CC(=O)[O-])CC(=O)[O-].[Na+].[Na+].[Na+] [trisalt ethylenediaminehydroxyethyl triacetate] | acts as an anti-discoloration agent
3 | do not have an anti-staining effect | polyoxyethylene (E.O. 60) hydrogenated castor oil | 
4 | acts as an anti-staining agent | polyoxyethylene polyoxypropylene 2-decyltetradecyl ether (20-28 E.O.) (10-16 P.O.) | 
